# Source: paper PMC8665103 (Journal of medicinal chemistry, 2021)
# pIC50: −log10 of the molar value. Where two headings read alike, the source gives them in different places.
# How the values were obtained:
# [1] = assay type: physicochemical; conditions: for CAC (critical aggregation concentration) / Colloid radius ±SD: DLS; for CAC (critical aggregation concentration): 50 mM KPi pH 7.0, 1% DMSO
# [2] = molecular target: 3CL-Pro (Severe acute respiratory syndrome coronavirus 2, UniProt P0DTD1); assay: 3CL-Pro kinetics inhibition assay in the presence of 0.05% Tween-20; assay type: biochemical, SARS-CoV-2; conditions: 0.05% Tween-20 versus literature IC50
# [3] = molecular target: T1, MDH (Sus scrofa, UniProt P00346); assay: Colloid centrifugation followed by MDH inhibition of supernatant; assay type: biochemical, porcine; conditions: 14,000 rpm, 1 h, 4 °C; supernatant tested
# T1 sequence (P00346 25-338): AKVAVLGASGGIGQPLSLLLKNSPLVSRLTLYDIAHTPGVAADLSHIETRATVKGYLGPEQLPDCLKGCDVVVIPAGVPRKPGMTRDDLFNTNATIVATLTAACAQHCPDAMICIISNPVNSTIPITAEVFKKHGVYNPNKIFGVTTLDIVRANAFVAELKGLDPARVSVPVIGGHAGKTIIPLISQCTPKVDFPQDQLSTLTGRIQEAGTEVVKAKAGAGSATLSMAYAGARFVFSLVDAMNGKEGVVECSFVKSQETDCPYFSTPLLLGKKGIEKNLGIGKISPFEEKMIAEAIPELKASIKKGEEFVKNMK
# [4] = molecular target: T2, MDH (malate dehydrogenase, from porcine heart) (Sus scrofa, UniProt P00346); assay: MDH inhibition counter screen with or without 0.01% Triton X-100; assay type: biochemical; conditions: for Effect of 0.01% Triton X-100 detergent on MDH inhibition/activity: addition of 0.01% Triton X-100; for Hill slope of MDH inhibition: in the absence of detergent
# T2 sequence (P00346 25-338): T1 sequence (P00346 25-338)
# [5] = molecular target: AmpC β-lactamase (Escherichia coli, UniProt P00811); assay: AmpC β-lactamase counter screen with or without 0.01% Triton X-100; assay type: biochemical
# Chain of AmpC β-lactamase (P00811 20-377): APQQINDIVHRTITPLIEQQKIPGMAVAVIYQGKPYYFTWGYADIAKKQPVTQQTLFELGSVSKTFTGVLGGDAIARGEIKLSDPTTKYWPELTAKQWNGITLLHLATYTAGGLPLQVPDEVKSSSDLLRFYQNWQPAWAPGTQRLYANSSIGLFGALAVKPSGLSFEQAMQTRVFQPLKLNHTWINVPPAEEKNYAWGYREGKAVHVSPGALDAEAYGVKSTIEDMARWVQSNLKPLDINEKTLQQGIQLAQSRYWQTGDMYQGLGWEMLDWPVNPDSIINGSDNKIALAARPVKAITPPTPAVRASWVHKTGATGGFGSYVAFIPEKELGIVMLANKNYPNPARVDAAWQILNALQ
compound,measurement,setting,value
O=C(O)c1ccc(N2C(=O)/C(=C\c3ccc(-c4ccc([N+](=O)[O-])cc4)o3)C=C2c2ccccc2)cc1 [4E1RCat],CAC (critical aggregation concentration),[1]; literature hits,6.6 µM
same,Colloid radius ±SD,[1]; literature hits,102 ± 8 nm
same,Reduction of 3CL-Pro potency in presence of detergent versus literature value,[2],fivefold
COc1ccc(-c2ccc3cc(C(=O)O)ccc3c2)cc1C12CC3CC(CC(C3)C1)C2 [Adapalene],Colloid radius ±SD,[1]; drugs from repurposing library,422 ± 65 nm
Cc1c(C)c2c(c(C)c1O)CCC(C)(CCCC(C)CCCC(C)CCCC(C)C)O2 (stereo not drawn) [Alpha-Tochopherol],Colloid radius ±SD,[1]; drugs from repurposing library,466 ± 5.6 nm
O=C1c2c(O)cccc2Cc2cccc(O)c21 [Anthralin],Colloid radius ±SD,[1]; literature hits,1014 ± 53 nm
O=C1CCc2ccc(OCCCCN3CCN(c4cccc(Cl)c4Cl)CC3)cc2N1 [Aripiprazole],Colloid radius ±SD,[1]; literature hits,222 ± 5. nm
Cc1c(-c2ccc(O)cc2)n(Cc2ccc(OCCN3CCCCCC3)cc2)c2ccc(O)cc12 [Bazedoxifene],Colloid radius ±SD,[1]; drugs from repurposing library,2822 ± 814 nm
c1ccc(-c2ccc(C(c3ccccc3)n3ccnc3)cc2)cc1 (stereo not drawn) [Bifonazole],Colloid radius ±SD,[1]; drugs from repurposing library,184 ± 80 nm
CC(C)(C)[C@H]1CC[C@H](CC2=C(O)C(=O)c3ccccc3C2=O)CC1 [Buparvaquone],Colloid radius ±SD,[1]; drugs from repurposing library,186 ± 15 nm
C[C@@H](NCCCc1cccc(C(F)(F)F)c1)c1cccc2ccccc12 [Cinacalcet],Colloid radius ±SD,[1]; literature hits,77 ± 4 nm
Oc1c(I)cc(Cl)c2cccnc12 [Clioquinol],Colloid radius ±SD,[1]; literature hits,1818 ± 177 nm
Clc1ccccc1C(c1ccccc1)(c1ccccc1)n1ccnc1 [Clotrimazole],Colloid radius ±SD,[1]; literature hits,283 ± 15 nm
COc1c2ccc(-c3ccccc3)oc-2cc(=O)c1C [Dracorhodin],Colloid radius ±SD,[1]; drugs from repurposing library,101 ± 22 nm
Cc1cc(O)c2c(c1)C(=O)c1cc(O)cc(O)c1C2=O [Emodin],Colloid radius ±SD,[1]; literature hits,58 ± 17 nm
Cc1cc(-c2ccc(/N=N/c3ccc4c(S(=O)(=O)[O-])cc(S(=O)(=O)[O-])c(N)c4c3O)c(C)c2)ccc1/N=N/c1ccc2c(S(=O)(=O)[O-])cc(S(=O)(=O)[O-])c(N)c2c1O.[Na+].[Na+].[Na+].[Na+] [Evans Blue],Particles by DLS,[1],did not show particles by DLS
same,MDH enzyme activity after centrifugation of compound,[3],enzyme activity was restored after centrifugation
Cc1cc2c(C(C)C)c(O)c(O)c(C=O)c2c(O)c1-c1c(C)cc2c(C(C)C)c(O)c(O)c(C=O)c2c1O [Gossypol],Colloid radius ±SD,[1]; literature hits,70 ± 6 nm
O=C1C=C2CC3(O)COc4c(ccc(O)c4O)C3=C2C=C1O (stereo not drawn) [Hematein],Colloid radius ±SD,[1]; literature hits,64 ± 1 nm
Cc1cc(O)c2c(=O)c3c(O)cc(O)c4c5c(O)cc(O)c6c(=O)c7c(O)cc(C)c8c1c2c(c34)c(c78)c65 [Hypericin],Colloid radius ±SD,[1]; literature hits,143 ± 6 nm
COC(=O)C1=C(C)NC(C)=C(C(=O)OC(C)(C)CN(C)CCC(c2ccccc2)c2ccccc2)C1c1cccc([N+](=O)[O-])c1 (stereo not drawn) [Lercanidipine],Colloid radius ±SD,[1]; literature hits,853 ± 147 nm
same,Increase in DLS scattering intensity (Cnts/sec) on particle formation,[1]; aqueous buffer,10 fold
same,Effect of 0.01% Triton X-100 detergent on MDH inhibition/activity,[4],MDH activity is restored
same,Hill slope of MDH inhibition,[4],2.9
COC(=O)C1=C(C)NC(C)=C(C(=O)OCCN2CCN(C(c3ccccc3)c3ccccc3)CC2)C1c1cccc([N+](=O)[O-])c1 (stereo not drawn) [Manidipine],Colloid radius ±SD,[1]; literature hits,929 ± 75 nm
O=c1c(O)c(-c2cc(O)c(O)c(O)c2)oc2cc(O)cc(O)c12 [Myricetin],Colloid radius ±SD,[1]; literature hits,100 ± 4 nm
CC(C)=CC[C@@H](O)C1=CC(=O)c2c(O)ccc(O)c2C1=O [Shikonin],Colloid radius ±SD,[1]; literature hits,169 ± 9 nm
same,Hill slope of MDH inhibition,[4],1.3–1.4
Brc1c(Br)c(Br)c2[nH]nnc2c1Br [TBB],Particles by DLS,[1],did not show particles by DLS
same,MDH enzyme activity after centrifugation of compound,[3],enzyme activity was restored after centrifugation
C/C(=C\c1ccc(C(=O)O)cc1)c1ccc2c(c1)C(C)(C)CCC2(C)C [TTNPB],Colloid radius ±SD,[1]; literature hits,72 ± 3 nm
O=C(O)c1cccc(CN2C(=O)/C(=C(\c3ccccc3)c3ccc(Cl)cc3)c3ccccc32)c1 [YLF-466D],Colloid radius ±SD,[1]; literature hits,40 ± 0.4 nm
Hemin,CAC (critical aggregation concentration),[1]; literature hits,13 µM
same,Colloid radius ±SD,[1]; literature hits,84 ± 0.9 nm
same,Hill slope of MDH inhibition,[4],1.3–1.4
same,AmpC enzyme activity on addition of 0.01% (v/v) Triton X-100,[5]; at 25 μM hemin,fully restored enzyme activity
same,pIC50,"[5]; read-out: AmpC IC50, no detergent",4.64
same,Reduction of 3CL-Pro potency in presence of detergent versus literature value,[2],2.6 fold
tannic acid,Effect of 0.01% Triton X-100 detergent on MDH inhibition/activity,[4],cannot be reversed by detergent
